One substance from patent US20040043914A1, “Sustained release antimicrobial composition including a partially halogenated hydantoin and a colorant” (LONZA INC., priority 2002, published 2004) can be followed below.

This data set can be described thus: Total chlorine yield upon dissolution. Format: physicochemical. An excerpt:
The partially halogenated hydantoin is preferably monochloro-5,5-dimethyl hydantoin (MCDMH). MCDMH yields about 43% of its weight in total chlorine upon dissolution.

On to “monochloro-5,5-dimethyl hydantoin [MCDMH]”, for which the “total chlorine yielded upon dissolution” value was “about 43 % of its weight”.
